Test results published in patent publication US20230106943A1, “ENGINEERED ANTIMICROBIAL PEPTIDES AND USAGE THEREOF” (Peptilogics, Inc., priority 2021, published 2023).
Values joined by “and” are separate entries in the source; they are usually repeats but may differ in a detail not shown here. Equal entries are not always repeated. No end group written: not given here.

Legend:
[1] = Example 4 stability of concentrated saline pH 5.0 solutions at −20° C. or 40° C./75% RH: Visual Appearance (method 25481); type: physicochemical
Method: (§1) The peptide formulation of SEQ ID NO: 1 dissolved in a saline solution with a pH of 5.0±0.1 was tested for stability under either −20° C. or 40° C. with 75% relative humidity (RH). […]

[2] = Stability of 5 mg/mL SEQ ID NO: 1 solution pH 5.0 stored at 40° C. or −20° C. (content, pH, HPLC area %); type: physicochemical; details: for level of impurity at RRT 0.98: 5 mg/mL solution pH 5.0
Method: Enhanced stability was shown of the peptide formulation after 54 days of storage at 40° C. as a liquid solution with a concentration of 5 mg/mL of SEQ ID NO: 1 at pH of 5.0. FIG. 4 depict the overlaid chromatograph of SEQ ID NO: 1 after 7 days at 40° C. (bottom graph) and after 54 days at 40° C. (top graph).

[3] = Example 7 stability of 1 mg/mL SEQ ID NO: 1 solutions at pH 4-7, HPLC % area over storage; type: physicochemical
Method: SEQ ID NO: 1 was dissolved in sterile water for injection resulting solutions at a concentration of 1 mg/mL and pH adjusting agents were added to achieve a pH value in the range of 4-7. The pH adjusting chosen were acetate and sodium hydroxide and citric acid (for pH 4). Each of the solutions were filtered through a 0.45 um filter and samples were stored in 1 mL aliquots at 40° C., room temperature (approximately 20° C.), refrigerated conditions (5° C.), and frozen at −20° C. Samples were withdrawn at regular intervals (t=0, and Days 2, 7, 14, and 28) and analyzed by HPLC to determine if chemical degradation of the peptide could be detected in any samples. Degradation rates between samples of each pH were also analyzed.

[4] = Example 4 stability of concentrated solutions: UV-Vis Assay (method 78933); type: physicochemical
Method: as §1

[5] = Stability of solid SEQ ID NO: 1 stored at −20° C. (HPLC area percent); type: physicochemical
Method: A solid form of SEQ ID NO: 1 from Batch 2K18005 was dissolved and assayed. FIG. 1 depict the chromatograph of SEQ ID NO:1 at 1.0 mg/mL. The retention time at 14.38 and relative retention time at 1.00 (RTT) corresponded to SEQ ID NO: 1. The area percent of the SEQ ID NO: 1 was 99.09. […] The area percent of the impurity was 0.91. FIG. 1 depicts SEQ ID NO: 1 at time (t)=0 for a baseline prior to storage. SEQ ID NO: 1 is stable after 3 years of storage at −20° C. as a dry powder in a glass vial. FIG. 2 depicts the HPLC chromatograph after 3 years of storage SEQ ID NO: 1 in solid form at −20° C. (Batch 2K18005). The retention time at 18.03 and relative retention time at 1.00 (RTT) corresponded to SEQ ID NO: 1. The area percent of the SEQ ID NO: 1 was 97.87.

[6] = 15.3 mg/mL solution, 40° C. and 75% RH, 1 Month
[7] = 15.3 mg/mL solution, 40° C. and 75% RH, 2 Month
[8] = 15.3 mg/mL solution, 40° C. and 75% RH, 3 Month
[9] = 15.3 mg/mL solution, 40° C. and 75% RH, 6 Month
[10] = 15.3 mg/mL solution, −20° C., 0 Month
[11] = 15.3 mg/mL solution, −20° C., 1 Month
[12] = 15.3 mg/mL solution, −20° C., 2 Month
[13] = 15.3 mg/mL solution, −20° C., 3 Month
[14] = 15.3 mg/mL solution, −20° C., 6 Month
[15] = 36.7 mg/mL solution, 40° C. and 75% RH, 1 Month
[16] = 36.7 mg/mL solution, 40° C. and 75% RH, 2 Month
[17] = 36.7 mg/mL solution, 40° C. and 75% RH, 3 Month
[18] = 36.7 mg/mL solution, 40° C. and 75% RH, 6 Month
[19] = 36.7 mg/mL solution, −20° C., 0 Month
[20] = 36.7 mg/mL solution, −20° C., 1 Month
[21] = 36.7 mg/mL solution, −20° C., 2 Month
[22] = 36.7 mg/mL solution, −20° C., 3 Month
[23] = 36.7 mg/mL solution, −20° C., 6 Month
[24] = 72.4 mg/mL solution, 40° C. and 75% RH, 1 Month
[25] = 72.4 mg/mL solution, 40° C. and 75% RH, 2 Month
[26] = 72.4 mg/mL solution, 40° C. and 75% RH, 3 Month
[27] = 72.4 mg/mL solution, 40° C. and 75% RH, 6 Month
[28] = 72.4 mg/mL solution, −20° C., 0 Month
[29] = 72.4 mg/mL solution, −20° C., 1 Month
[30] = 72.4 mg/mL solution, −20° C., 2 Month
[31] = 72.4 mg/mL solution, −20° C., 3 Month
[32] = 72.4 mg/mL solution, −20° C., 6 Month
[33] = solid form, Batch 2K18005, t=0 baseline prior to storage
[34] = solid form, after 3 years at −20° C.

For “RRWVRRVRRVWRRVVRVVRRWVRR-NH2 [SEQ ID NO: 1]”, the “Visual Appearance” value [1, 6] was “Clear, colorless liquid. Free of visible particulates”, the “Visual Appearance” value [1, 7] was “Clear, colorless liquid. Free of visible particulates” and the “Visual Appearance” value [1, 8] was “Clear, colorless liquid. Free of visible particulates”. The “Visual Appearance” value [1, 9] was “Clear, colorless liquid. Free of visible particulates,”, the “Visual Appearance” value [1, 10] was “Clear, colorless liquid. Free of visible particulates” and the “Visual Appearance” value [1, 11] was “Clear, colorless liquid. Free of visible particulates”. The “Visual Appearance” value [1, 12] was “Clear, colorless liquid. Free of visible”, the “Visual Appearance” value [1, 13] was “Clear, colorless liquid. Free of visible particulates” and the “Visual Appearance” value [1, 14] was “Clear, colorless liquid. Free of visible particulates,”. The “Visual Appearance” value [1, 15] was “Clear, colorless liquid”, the “Visual Appearance” value [1, 16] was “Clear, colorless liquid” and the “Visual Appearance” value [1, 17] was “Clear, colorless liquid”. The “Visual Appearance” value [1, 18] was “Clear, colorless liquid, free”, the “Visual Appearance” value [1, 19] was “Clear, colorless liquid” and the “Visual Appearance” value [1, 20] was “Clear, colorless liquid”. For the same substance, the “Visual Appearance” value [1, 21] was “Clear, colorless liquid”, the “Visual Appearance” value [1, 22] was “Clear, colorless liquid” and the “Visual Appearance” value [1, 23] was “Clear, colorless liquid, free”. For the same substance, the “Visual Appearance” value [1, 24] was “Clear, colorless liquid”, the “Visual Appearance” value [1, 25] was “Clear, colorless liquid” and the “Visual Appearance” value [1, 26] was “Clear, colorless liquid”. For the same substance, the “Visual Appearance” value [1, 27] was “Clear, slightly yellow liquid, free”, the “Visual Appearance” value [1, 28] was “Clear, colorless liquid” and the “Visual Appearance” value [1, 29] was “Clear, colorless liquid”. For the same substance, the “Visual Appearance” value [1, 30] was “Clear, colorless liquid”, the “Visual Appearance” value [1, 31] was “Clear, colorless liquid” and the “Visual Appearance” value [1, 32] was “Clear, colorless liquid, free”. The “Visual Appearance” value ([1]; 81.4 mg/mL solution, 40° C. and 75% RH, 1 Month) was “Clear, yellow liquid”, the “Visual Appearance” value ([1]; 81.4 mg/mL solution, 40° C. and 75% RH, 3 Month) was “stopper Solution: Clear, yellow” and the “Visual Appearance” value ([1]; 81.4 mg/mL solution, −20° C., 1 Month) was “Clear, colorless liquid”. The “Visual Appearance” value ([1]; 81.4 mg/mL solution, −20° C., 2 Month) was “a clear colorless liquid, visibly”, the “Visual Appearance” value ([1]; 81.4 mg/mL solution, −20° C., 3 Month) was “rubber stopper Solution: Clear, colorless liquid,” and the “level of impurity at RRT 0.98” value ([2]; 7 days at 40° C.) was 0.4%. The “level of impurity at RRT 0.98” value ([2]; 54 days at 40° C.) was 1.1%, the “Main peak SEQ ID NO: 1 area %” value ([2]; 7 days/40° C.) was 97.2% and 97.1% and the “SEQ ID NO: 1 content” value ([2]; 7 days/40° C.) was 5.05 mg/mL and 5.11 mg/mL. For the same substance, the “Solution pH” value ([2]; 7 days/40° C.) was 4.98 and 5.02, the “Main peak SEQ ID NO: 1 area %” value ([2]; 7 days/−20° C.) was 97.2% and the “SEQ ID NO: 1 content” value ([2]; 7 days/−20° C.) was 5.11 mg/mL. For the same substance, the “Main peak SEQ ID NO: 1 area %” value ([2]; 14 days/40° C.) was 96.2% and 94.7%, the “SEQ ID NO: 1 content” value ([2]; 14 days/40° C.) was 5.05 mg/mL and 5.01 mg/mL and the “Solution pH” value ([2]; 14 days/40° C.) was 5.01 and 5.00. The “SEQ ID NO: 1 content” value ([2]; 14 days/−20° C.) was 5.08 mg/mL, the “Solution pH” value ([2]; 14 days/−20° C.) was 4.97 and the “Main peak SEQ ID NO: 1 area %” value ([2]; 54 days/40° C.) was 95.6%. The “SEQ ID NO: 1 content” value ([2]; 54 days/40° C.) was 4.99 mg/mL, the “Solution pH” value ([2]; 54 days/40° C.) was 4.96 and the “Main peak SEQ ID NO: 1 area %” value ([2]; 54 days/−20° C.) was 96.9%. For the same substance, the “Area % of concurrent analytical standard” value ([2]; standard run with the 7 days samples) was 97.1 ± 0.4%, the “Area % of concurrent analytical standard” value ([2]; standard run with the 14 days samples) was 95.5 ± 0.5% and the “Area % of concurrent analytical standard” value ([2]; standard run with the 54 days samples) was 96.8 ± 0.8%. The “impurity change by HPLC % area” value ([3]; pH 4-7 samples, after 7 days of storage at 40° C.) was “no significant evidence of impurity increase”, the “overall stability as a function of pH” value ([3]; pH 4 and pH 5 made with acetic acid) was “maximum stability” and the “impurity change by HPLC % area” value ([3]; prepared at pH 4 with citrate, after 27 days of storage at 40° C.) was “increase in impurities”. The “impurity change by HPLC % area” value ([3]; prepared at pH 7, after 27 days of storage at 40° C.) was “increase in impurities”, the “UV-Vis Assay” value [4, 6] was 102.0% and the “UV-Vis Assay” value [4, 7] was 102.2%. The “UV-Vis Assay” value [4, 8] was 103.9%, the “UV-Vis Assay” value [4, 9] was 102.5% and the “UV-Vis Assay” value [4, 10] was 102.0%. For the same substance, the “UV-Vis Assay” value [4, 11] was 101.5%, the “UV-Vis Assay” value [4, 12] was 104.0% and the “UV-Vis Assay” value [4, 13] was 105.1%. The “UV-Vis Assay” value [4, 14] was 103.9%, the “UV-Vis Assay” value ([4]; 15.3 mg/mL solution, −20° C., 9 Month) was 103.1% and the “UV-Vis Assay” value [4, 15] was 100.3%. For the same substance, the “UV-Vis Assay” value [4, 16] was 101.3%, the “UV-Vis Assay” value [4, 17] was 99.2% and the “UV-Vis Assay” value [4, 18] was 100.1%. The “UV-Vis Assay” value [4, 19] was 98.1%, the “UV-Vis Assay” value [4, 20] was 100.0% and the “UV-Vis Assay” value [4, 21] was 100.6%. The “UV-Vis Assay” value [4, 22] was 101.7%, the “UV-Vis Assay” value [4, 23] was 99.5% and the “UV-Vis Assay” value ([4]; 36.7 mg/mL solution, −20° C., 9 Month) was 100.3%. The “UV-Vis Assay” value [4, 24] was 97.8%, the “UV-Vis Assay” value [4, 25] was 98.6% and the “UV-Vis Assay” value [4, 26] was 93.4%. The “UV-Vis Assay” value [4, 27] was 95.4%, the “UV-Vis Assay” value [4, 28] was 90.1% and the “UV-Vis Assay” value [4, 29] was 97.6%. The “UV-Vis Assay” value [4, 30] was 98.2%, the “UV-Vis Assay” value [4, 31] was 94.5% and the “UV-Vis Assay” value [4, 32] was 97.0%. For the same substance, the “UV-Vis Assay” value ([4]; 72.4 mg/mL solution, −20° C., 9 Month) was 99.0%, the “UV-Vis Assay” value ([4]; 81.4 mg/mL solution, −20° C., 0 Month) was 105.0 % LC and the stability on storage ([5]; dry powder in a glass vial, 3 years at −20° C.) was “stable”. The “area percent of the SEQ ID NO: 1 (HPLC)” value ([5]; solid form, Batch 2K18005, after 3 years of storage at −20° C.) was 97.87 area percent, the “area percent of the SEQ ID NO: 1 (HPLC)” value [5, 33] was 99.09 area percent and the “area percent of the impurity, RTT 1.03” value [5, 33] was 0.91 area percent. The “area percentage of impurity, RTT 0.99” value [5, 34] was 0.09 area percent, the “area percentage of impurity, RTT 1.02” value [5, 34] was 1.28 area percent and the “area percentage of impurity, RTT 1.03” value [5, 34] was 0.41 area percent. The “area percentage of impurity, RTT 1.04” value [5, 34] was 0.19 area percent, the “area percentage of impurity, RTT 1.05” value [5, 34] was 0.15 area percent and the solubility was > 100 mg/mL.
